Experimental findings from patent publication US20200338084A1, “INHIBITORS OF LOW MOLECULAR WEIGHT PROTEIN TYROSINE PHOSPHATASE (LMPTP) AND USES THEREOF” (Sanford Burnham Prebys Medical Discovery Institute, priority 2018, published 2020) are described below.

Bounds are passed on as bounds.

For this experiment, the target named is T1, human LMPTP-A (Homo sapiens, UniProt P24666).
T1 sequence (P24666 1-158): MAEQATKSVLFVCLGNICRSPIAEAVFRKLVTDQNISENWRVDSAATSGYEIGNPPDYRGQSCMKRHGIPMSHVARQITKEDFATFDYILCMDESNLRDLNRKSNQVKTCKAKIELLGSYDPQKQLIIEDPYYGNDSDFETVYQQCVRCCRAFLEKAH
As to the kind of experiment: Enzyme Assay of Inhibition of LMPTP-A. It is filed as biochemical. Conditions: phosphatase assay, OMFP or pNPP substrate, 50 mM Bis-Tris pH 6.0, 37° C. The method in brief:
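Recombinant human LMPTP-A in 50 mM Bis-Tris pH 6.0, 1 mM DTT, 0.01% Triton X-100 at 37° C. Substrate OMFP read continuously by fluorescence (485/525 nm), or pNPP stopped with NaOH and read at 405 nm. IC50 taken from inhibitor concentration versus % activity plots.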
On to `Nc1ncn(Cc2c(Cl)cccc2Cl)c2nc(Cc3ccc(C(F)(F)F)cc3)nc1-2` [3-[(2,6-dichlorophenyl)methyl]-8-{[4-(trifluoromethyl)phenyl]methyl}-3-hydropurine-6-ylamine], for which the IC50 – broadly, the point on the concentration scale where inhibition reaches its midpoint – is at most 1 µM.

“3-[(2,6-dichlorophenyl)methyl]-8-[(4-chlorophenyl)methyl]-3-hydropurine-6-ylamine” yielded an IC50 of at most 1 µM.

Turning to `Cc1cccc(Cl)c1Cn1cnc(N)c2ncnc1-2` [3-(2-chloro-6-methylbenzyl)-3H-purin-6-amine], the IC50 was at most 1 µM.

Compound `NC(=O)c1cccc(Cl)c1Cn1cnc(N)c2ncnc1-2` [2-((6-amino-3H-purin-3-yl)methyl)-3-chlorobenzamide] had an IC50 of at most 1 µM.

As to `N#Cc1cccc(Cn2cnc(N)c3ncnc2-3)c1` [3-((6-amino-3H-purin-3-yl)methyl)benzonitrile], the IC50 was 1 to 20 µM.

Turning to `Cc1cccc(Cn2cnc(N)c3ncnc2-3)n1` [3-(6-Methyl-pyridin-2-ylmethyl)-3H-purin-6-ylamine], the IC50 is at least 20 µM.

As to `Clc1cccc(Cl)c1Cn1cnc(NCc2cnco2)c2ncnc1-2` [[3-(2,6-Dichloro-benzyl)-3H-purin-6-yl]-oxazol-5-ylmethyl-amine], the 50% inhibitory concentration (IC50) lay within 1 to 20 µM.

For `Clc1cccc(Cl)c1Cn1cnc(Nc2ccc(Br)cc2)c2ncnc1-2` [{3-[(2,6-Dichlorophenyl)methyl](3-hydropurin-6-yl)}(4-bromophenyl)amine], the IC50 fell in the range of 1 to 20 µM.

With `CCC(=O)Nc1ncn(Cc2c(Cl)cccc2Cl)c2ncnc1-2` [N-[3-(2,6-Dichloro-benzyl)-3 H-purin-6-yl]-propionamide], the IC50 was 1 to 20 µM.

`Nc1ncn(Cc2c(Cl)cccc2Cl)c2nc(-c3cccc(F)c3F)nc1-2` [3-[(2,6-dichlorophenyl)methyl]-8-(2,3-difluorophenyl)-3-hydropurine-6-ylamine] returned an IC50 of at most 1 µM.

In turn, `Cn1ccnc1Cn1cnc(N)c2ncnc1-2` [3-((1-methyl-1H-imidazol-2-yl)methyl)-3H-purin-6-amine] had an IC50 of at least 20 µM.

In the case of `NCCNc1ncn(Cc2c(Cl)cccc2Cl)c2ncnc1-2` [(2-Aminoethyl){3-[(2,6-dichlorophenyl)methyl](3-hydropurin-6-yl)}amine], the IC50 was at least 20 µM.

`Nc1ncn(Cc2c(Cl)cccc2Br)c2ncnc1-2` [3-(2-bromo-6-chlorobenzyl)-3H-purin-6-amine] came in with an IC50 of at most 1 µM.

As to `N#Cc1ccccc1-c1nc2c(N)ncn(Cc3c(Cl)cccc3Cl)c-2n1` [2-{6-Amino-3-[(2,6-dichlorophenyl)methyl]-3-hydropurin-8-yl}benzenecarbonitrile], the IC50 was at most 1 µM.

Compound `Cc1ccc(Nc2ncn(Cc3c(Cl)cccc3Cl)c3ncnc2-3)cc1` [{3-[(2,6-Dichlorophenyl)methyl](3-hydropurin-6-yl)}(4-methylphenyl)amine] displayed an IC50 of 1 to 20 µM.

In the case of `Nc1ncn(Cc2c(Br)cncc2Br)c2ncnc1-2` [3-[(3,5-dibromo-4-pyridyl)methyl]-3-hydropurine-6-ylamine], the IC50 is at most 1 µM.

Take `Nc1ncn(Cc2cccc(O)c2)c2ncnc1-2` [3-(6-Amino-purin-3-ylmethyl)-phenol]: the IC50 lay within 1 to 20 µM.

In turn, `Nc1ncn(Cc2ccc(F)cc2)c2ncnc1-2` [3-(4-fluorobenzyl)-3H-purin-6-amine] yielded an IC50 of at least 20 µM.

In turn, `FC(F)(F)c1ccc(Nc2ncn(Cc3c(Cl)cccc3Cl)c3ncnc2-3)cc1` [3-(2,6-dichlorobenzyl)-N-(4-(trifluoromethyl)phenyl)-3H-purin-6-amine] displayed an IC50 of 1 to 20 µM.

Compound `Nc1ncn(Cc2ccc(Br)cc2)c2ncnc1-2` [3-(4-Bromo-benzyl)-3H-purin-6-ylamine] registered an IC50 of 1 to 20 µM.

`COC(=O)c1cccc(Cl)c1Cn1cnc(N)c2ncnc1-2` [2-(6-Amino-purin-3-ylmethyl)-3-chloro-benzoic acid methyl ester] returned an IC50 of at most 1 µM.

For the compound `COc1ccc(Cc2nc3c(N)ncn(Cc4c(Cl)cccc4Cl)c-3n2)cc1` [3-[(2,6-dichlorophenyl)methyl]-8-[(4-methoxyphenyl)methyl]-3-hydropurine-6-ylamine], the IC50 is at most 1 µM.

`O=[N+]([O-])c1ccc(Nc2ncn(Cc3c(Cl)cccc3Cl)c3ncnc2-3)cc1` [{3-[(2,6-Dichlorophenyl)methyl](3-hydropurin-6-yl)}(4-nitrophenyl)amine] came in with an IC50 of 1 to 20 µM.

In the case of `Oc1cccc(Nc2ncn(Cc3c(Cl)cccc3Cl)c3ncnc2-3)c1` [3-({3-[(2,6-Dichlorophenyl)methyl]-3-hydropurin-6-yl}amino)phenol], the IC50 lay in the range of 1 to 20 µM.

In turn, `Nc1ncn(Cc2c(Cl)cccc2Cl)c2nc(Cc3ccc(F)cc3)nc1-2` [3-[(2,6-dichlorophenyl)methyl]-8-[(4-fluorophenyl)methyl]-3-hydropurine-6-ylamine] gave an IC50 of at most 1 µM.

On to `CN(C)C(=O)c1ccc(Nc2ncn(Cc3c(Cl)cccc3Cl)c3ncnc2-3)cc1` [4-((3-(2,6-Dichlorobenzyl)-3H-purin-6-yl)amino)-N,N-dimethylbenzamide], for which the IC50 lay in the range of 1 to 20 µM.

In the case of `Cc1cccc(C)c1Cn1cnc(NCc2ccco2)c2ncnc1-2` [3-(2,6-Dimethylbenzyl)-n-(furan-2-ylmethyl)-3h-purin-6-amine], the IC50 is 1 to 20 µM.

As for `Cc1cccc(C)c1Cn1cnc(N)c2ncnc1-2` [3-(2,6-dimethylbenzyl)-3H-purin-6-amine], the IC50 lay in the range of 1 to 20 µM.

The compound `Nc1ncn(Cc2c(Cl)cccc2Cl)c2nc(-c3ccc(F)c(F)c3F)nc1-2` [3-[(2,6-dichlorophenyl)methyl]-8-(2,3,4-trifluorophenyl)-3-hydropurine-6-ylamine] gave an IC50 of at most 1 µM.

On to `Nc1ncn(Cc2ccccc2)c2ncnc1-2` [3-benzyl-3-hydropurine-6-ylamine, 3-Benzyl-3-hydropurine-6-ylamine], for which the IC50 lay in the range of 1 to 20 µM.

Consider `Nc1ncn(Cc2c(Cl)cccc2Cl)c2nc(C3CCC3)nc1-2` [3-[(2,6-Dichlorophenyl)methyl]-8-cyclobutyl-3-hydropurine-6-ylamine], for which the IC50 was at most 1 µM.

`O=S(=O)(Cc1cccc(F)c1)Nc1ncn(Cc2c(Cl)cccc2Cl)c2ncnc1-2` [{3-[(2,6-dichlorophenyl)methyl](3-hydropurin-6-yl)}{[(3-fluorophenyl)methyl]sulfonyl}amine] returned an IC50 of at least 20 µM.

For `COc1ccc(Nc2ncn(Cc3c(Cl)cccc3Cl)c3ncnc2-3)cc1` [3-(2,6-Dichlorobenzyl)-N-(4-methoxyphenyl)-3H-purin-6-amine], the IC50 fell in the range of 1 to 20 µM.

The compound `Cc1cccc(-c2nc3c(N)ncn(Cc4c(Cl)cccc4Cl)c-3n2)c1` [3-[(2,6-Dichlorophenyl)methyl]-8-(3-methylphenyl)-3-hydropurine-6-ylamine] displayed an IC50 of at most 1 µM.

`Cc1ccc(S(=O)(=O)Nc2ncn(Cc3c(Cl)cccc3Cl)c3ncnc2-3)cc1` [{3-[(2,6-dichlorophenyl)methyl](3-hydropurin-6-yl)}[(4-methylphenyl)sulfonyl]amine] had an IC50 of at least 20 µM.

`Nc1ncn(Cc2c(F)cccc2I)c2ncnc1-2` [3-(2-Fluoro-6-iodo-benzyl)-3H-purin-6-ylamine] returned an IC50 of at most 1 µM.

`N#Cc1cccc(-c2nc3c(N)ncn(Cc4c(Cl)cccc4Cl)c-3n2)c1` [3-{6-Amino-3-[(2,6-dichlorophenyl)methyl]-3-hydropurin-8-yl}benzenecarbonitrile] registered an IC50 of at most 1 µM.
